In US8338465B2, “Cyclic carboxylic acid rhodanine derivatives for the treatment and prevention of tuberculosis” (priority 2006, dated 2012):
Structures can show the parent of a compound that is named as a salt.

Target: T1, dihydrolipoamide acyltransferase (DlaT) (Mycobacterium tuberculosis, UniProt P9WIS7)
T1 sequence (P9WIS7 1-553): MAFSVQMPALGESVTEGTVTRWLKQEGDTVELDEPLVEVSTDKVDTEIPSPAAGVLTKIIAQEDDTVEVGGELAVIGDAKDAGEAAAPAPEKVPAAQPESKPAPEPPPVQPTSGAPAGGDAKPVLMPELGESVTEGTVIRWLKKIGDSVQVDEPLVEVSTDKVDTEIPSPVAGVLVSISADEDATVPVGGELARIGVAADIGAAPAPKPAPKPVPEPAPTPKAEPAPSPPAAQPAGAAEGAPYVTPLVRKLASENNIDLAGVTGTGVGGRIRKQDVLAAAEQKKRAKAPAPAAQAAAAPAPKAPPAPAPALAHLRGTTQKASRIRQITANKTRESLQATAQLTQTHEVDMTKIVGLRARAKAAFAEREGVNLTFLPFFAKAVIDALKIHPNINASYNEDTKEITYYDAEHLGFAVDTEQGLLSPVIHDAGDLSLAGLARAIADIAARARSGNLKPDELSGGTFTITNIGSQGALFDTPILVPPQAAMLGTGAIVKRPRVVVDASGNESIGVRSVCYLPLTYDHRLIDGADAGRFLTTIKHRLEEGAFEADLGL
Assay: DlaT inhibition (Dlat IC50); DTNB peroxidase assay with Lpd, DlaT and AhpD
Format: biochemical
Settings: Dlat IC50 category

| SMILES | IC50 |
| --- | --- |
| O=C(O)c1cccc(N2C(=O)C(=Cc3ccc(-c4cc5ccccc5s4)o3)SC2=S)c1 [Compound I1] | < 10 µM |

Same assay, conditions: Dlat IC50 category, Table 10, Compounds J1 to J3

| SMILES | IC50 |
| --- | --- |
| O=C(O)C(Cc1ccccc1)N1C(=O)C(=Cc2ccc(-c3cc4ccccc4s3)o2)SC1=S (stereo not shown) [Compound J3] | < 10 µM |

Same assay, conditions: Dlat IC50 category, Table 13, Compounds M1 to M4

| SMILES | IC50 |
| --- | --- |
| O=C(O)c1cncc(N2C(=O)C(=Cc3ccc(-c4ccccc4Cl)o3)SC2=S)c1 [Compound M1] | < 10 µM |
| O=C(O)c1cncc(N2C(=O)C(=Cc3ccc(-c4cccc(C(F)(F)F)c4)o3)SC2=S)c1 [Compound M2] | < 10 µM |
| CC(C)(C)c1ccc(-c2ccc(C=C3SC(=S)N(c4cncc(C(=O)O)c4)C3=O)o2)cc1 [Compound M3] | < 10 µM |
| N#Cc1c(F)cccc1-c1ccc(C=C2SC(=S)N(c3cncc(C(=O)O)c3)C2=O)o1 [Compound M4] | 11 to 40 µM |

Same assay, conditions: Dlat IC50 category, Table 14, Compounds N1 to N3

| SMILES | IC50 |
| --- | --- |
| O=C(O)c1cccc(N2C(=O)C(=Cc3ccc(Cc4ccccc4Cl)o3)SC2=S)c1 [Compound N1] | < 10 µM |
| COc1ccc(C(=O)O)cc1N1C(=O)C(=Cc2ccc(Cc3ccccc3Cl)o2)SC1=S [Compound N2] | 11 to 40 µM |
| O=C(O)c1cc(N2C(=O)C(=Cc3ccc(Cc4ccccc4Cl)o3)SC2=S)ccc1O [Compound N3] | < 10 µM |

Same assay, conditions: Dlat IC50 category, Table 16, Compounds P1 to P2

| SMILES | IC50 |
| --- | --- |
| O=C(O)C(c1ccccc1)N1C(=O)C(=Cc2cccc(-c3ccc(Cl)s3)n2)SC1=S (stereo not shown) [Compound P1] | < 10 µM |
| O=C(O)CCN1C(=O)C(=Cc2cccc(-c3ccc(Cl)s3)n2)SC1=S [Compound P2] | 11 to 40 µM |

Same assay, conditions: Dlat IC50 category, Table 17, Compounds Q1 to Q9

| SMILES | IC50 |
| --- | --- |
| O=C(O)c1cccc(N2C(=O)C(=Cc3ccc(-c4cncnc4)o3)SC2=S)c1 [Compound Q1] | 11 to 40 µM |
| O=C(O)c1ccc(N2C(=O)C(=Cc3ccc(-c4cncnc4)o3)SC2=S)cc1 [Compound Q2] | 11 to 40 µM |
| NS(=O)(=O)c1ccc(N2C(=O)C(=Cc3ccc(-c4cncnc4)o3)SC2=S)cc1 [Compound Q3] | 11 to 40 µM |
| O=C(O)c1cccc(N2C(=O)C(=Cc3ccc(-c4ccncc4)o3)SC2=S)c1 [Compound Q4] | 11 to 40 µM |
| O=C(O)c1cc(N2C(=O)C(=Cc3ccc(-c4ccsc4Cl)o3)SC2=S)ccc1O [Compound Q5] | 11 to 40 µM |
| O=C(O)c1cccc(N2C(=O)C(=Cc3ccc(-c4ccc5nonc5c4)o3)SC2=S)c1 [Compound Q9] | 11 to 40 µM |

Same assay, conditions: Dlat IC50 category, Table 20, Prodrugs (Compounds T1 to T8)

| SMILES | IC50 |
| --- | --- |
| O=C(OCCCCO)c1cccc(N2C(=O)C(=Cc3ccc(-c4ccccc4Cl)o3)SC2=S)c1 [Compound T1, 3-{5-[1-[5-(2-Chloro-phenyl)-furan-2-yl]-methylidene]-4-oxo-2-thioxo-thiazolidin-3-yl}-benzoic acid 4-hydroxy-butyl ester] | 41 to 80 µM |
| O=C(OCCCO)c1cccc(N2C(=O)C(=Cc3ccc(-c4ccccc4Cl)o3)SC2=S)c1 [Compound T2, 3-{5-[1-[5-(2-Chloro-phenyl)-furan-2-yl]-methylidene]-4-oxo-2-thioxo-thiazolidin-3-yl}-benzoic acid 3-hydroxy-propyl ester] | 41 to 80 µM |
| O=C(OCCCCOP(=O)(O)O)c1cccc(N2C(=O)C(=Cc3ccc(-c4ccccc4Cl)o3)SC2=S)c1 [Compound T3, 3-{5-[1-[5-(2-Chloro-phenyl)-furan-2-yl]-methylidene]-4-oxo-2-thioxo-thiazolidin-3-yl}-benzoic acid 4-phosphonooxy-butyl ester] | 41 to 80 µM |
| O=C(OCC(CO)CO)c1cccc(N2C(=O)C(=Cc3ccc(-c4ccccc4Cl)o3)SC2=S)c1 [Compound T4, 3-{5-[1-[5-(2-Chloro-phenyl)-furan-2-yl]-methylidene]-4-oxo-2-thioxo-thiazolidin-3-yl}-benzoic acid 3-hydroxy-2-hydroxymethyl-propyl ester] | 11 to 40 µM |
| O=C(NC(CO)(CO)CO)c1cccc(N2C(=O)C(=Cc3ccc(-c4ccccc4Cl)o3)SC2=S)c1 [Compound T6, 3-{5-[1-[5-(2-Chloro-phenyl)-furan-2-yl]-methylidene]-4-oxo-2-thioxo-thiazolidin-3-yl}-N-(2-hydroxy-1,1-bis-hydroxymethyl-ethyl)-benzamide] | 11 to 40 µM |
| O=C(NC(CO)CO)c1cccc(N2C(=O)C(=Cc3ccc(-c4ccccc4Cl)o3)SC2=S)c1 [Compound T7, 3-{5-[1-[5-(2-Chloro-phenyl)-furan-2-yl]-methylidene]-4-oxo-2-thioxo-thiazolidin-3-yl}-N-(2-hydroxy-1-hydroxymethyl-ethyl)-benzamide] | 11 to 40 µM |
| O=C(OCCN(CCO)CCO)c1cccc(N2C(=O)C(=Cc3ccc(-c4ccccc4Cl)o3)SC2=S)c1 [Compound T8, 3-{5-[1-[5-(2-Chloro-phenyl)-furan-2-yl]-methylidene]-4-oxo-2-thioxo-thiazolidin-3-yl}-benzoic acid 2-[bis-(2-hydroxy-ethyl)-amino]-ethyl ester] | 41 to 80 µM |

Same assay, conditions: Dlat IC50 category, Table 21, Prodrugs (Examples U1 to U10)

| SMILES | IC50 |
| --- | --- |
| CNS(=O)(=O)c1ccc(-c2ccc(C=C3SC(=S)N(C4CCCC(C(=O)OCCCO)C4)C3=O)o2)cc1 (stereo not shown) [Compound U2, 3-{5-[1-[5-(4-Methylsulfamoyl-phenyl)-furan-2-yl]-methylidene]-4-oxo-2-thioxo-thiazolidin-3-yl}-cyclohexanecarboxylic acid 3-hydroxy-propyl ester] | 11 to 40 µM |
| CSc1ccc(-c2ccc(C=C3SC(=S)N(C4CCCC(C(=O)OCCO)C4)C3=O)o2)cc1 (stereo not shown) [Compound U3, 3-{5-[1-[5-(4-Methylsulfanyl-phenyl)-furan-2-yl]-methylidene]-4-oxo-2-thioxo-thiazolidin-3-yl}-cyclohexanecarboxylic acid 2-hydroxy-ethyl ester] | 41 to 80 µM |
| CSc1ccc(-c2ccc(C=C3SC(=S)N(C4CCCC(C(=O)OCCCCO)C4)C3=O)o2)cc1 (stereo not shown) [Compound U4, 3-{5-[1-[5-(4-Methylsulfanyl-phenyl)-furan-2-yl]-methylidene]-4-oxo-2-thioxo-thiazolidin-3-yl}-cyclohexanecarboxylic acid 4-hydroxy-butyl ester] | 41 to 80 µM |
| CSc1ccc(-c2ccc(C=C3SC(=S)N(C4CCCC(C(=O)OCC(CO)CO)C4)C3=O)o2)cc1 (stereo not shown) [Compound U5, 3-{5-[1-[5-(4-Methylsulfanyl-phenyl)-furan-2-yl]-methylidene]-4-oxo-2-thioxo-thiazolidin-3-yl}-cyclohexanecarboxylic acid 3-hydroxy-2-hydroxymethyl-propyl ester] | 11 to 40 µM |
| CSc1ccc(-c2ccc(C=C3SC(=S)N(C4CCCC(C(=O)OCC(C)(CO)CO)C4)C3=O)o2)cc1 (stereo not shown) [Compound U6, 3-{5-[1-[5-(4-Methylsulfanyl-phenyl)-furan-2-yl]-methylidene]-4-oxo-2-thioxo-thiazolidin-3-yl}-cyclohexanecarboxylic acid 3-hydroxy-2-hydroxymethyl-2-methyl-propyl ester] | 41 to 80 µM |
| CSc1ccc(-c2ccc(C=C3SC(=S)N(C4CCCC(C(=O)NC(CO)(CO)CO)C4)C3=O)o2)cc1 (stereo not shown) [Compound U7, 3-{5-[1-[5-(4-Methylsulfanyl-phenyl)-furan-2-yl]-methylidene]-4-oxo-2-thioxo-thiazolidin-3-yl}-cyclohexanecarboxylic acid (2-hydroxy-1,1-bis-hydroxymethyl-ethyl)-amide] | 41 to 80 µM |
| CSc1ccc(-c2ccc(C=C3SC(=S)N(C4CCCC(C(=O)NC(CO)CO)C4)C3=O)o2)cc1 (stereo not shown) [Compound U8, 3-{5-[1-[5-(4-Methylsulfanyl-phenyl)-furan-2-yl]-methylidene]-4-oxo-2-thioxo-thiazolidin-3-yl}-cyclohexanecarboxylic acid (2-hydroxy-1-hydroxymethyl-ethyl)-amide] | 41 to 80 µM |
| CS(=O)(=O)c1ccc(-c2ccc(C=C3SC(=S)N(C4CCCC(C(=O)OCCCO)C4)C3=O)o2)cc1 (stereo not shown) [Compound U9, 3-{5-[1-[5-(4-Methanesulfonyl-phenyl)-furan-2-yl]-methylidene]-4-oxo-2-thioxo-thiazolidin-3-yl}-cyclohexanecarboxylic acid 3-hydroxy-propyl ester] | 41 to 80 µM |
| CSc1ccc(-c2ccc(C=C3SC(=S)N(C4CCCC(C(=O)OCCN(CCO)CCO)C4)C3=O)o2)cc1 (stereo not shown) [Compound U10, 3-{5-[1-[5-(4-Methylsulfanyl-phenyl)-furan-2-yl]-methylidene]-4-oxo-2-thioxo-thiazolidin-3-yl}-cyclohexanecarboxylic acid 2-[bis-(2-hydroxy-ethyl)-amino]-ethyl ester hydrochloride] | < 10 µM |

Same assay, conditions: Table 20, Prodrugs (Compounds T1 to T8); read-out: Dlat IC50 category

| SMILES | IC50 |
| --- | --- |
| CC(CO)(CO)COC(=O)c1cccc(N2C(=O)C(=Cc3ccc(-c4ccccc4Cl)o3)SC2=S)c1 [Compound T5, 3-{5-[1-[5-(2-Chloro-phenyl)-furan-2-yl]-methylidene]-4-oxo-2-thioxo-thiazolidin-3-yl}-benzoic acid 3-hydroxy-2-hydroxymethyl-2-methyl propyl ester] | 11 to 40 µM |
